Reference: publication PMC6787163, “Systematic Dual Targeting of Dendritic Cell C-Type Lectin Receptor DC-SIGN and TLR7 Using a Trifunctional Mannosylated Antigen” (Frontiers in Chemistry, 2019)

Assays:
[1] = biological target: T1, DC-SIGN S-ECD (Homo sapiens, UniProt Q9NNX6); test: SPR direct interaction assay on oriented DC-SIGN S-ECD surface; assay type: binding; conditions: SPR direct interaction, oriented tetrameric DC-SIGN ECD surface, apparent Kd; read-out: Kdapp
T1 construct: The ECD of DC-SIGN (residues 66–404) was overexpressed and purified as previously described; made in house
T1 sequence (Q9NNX6 66-404): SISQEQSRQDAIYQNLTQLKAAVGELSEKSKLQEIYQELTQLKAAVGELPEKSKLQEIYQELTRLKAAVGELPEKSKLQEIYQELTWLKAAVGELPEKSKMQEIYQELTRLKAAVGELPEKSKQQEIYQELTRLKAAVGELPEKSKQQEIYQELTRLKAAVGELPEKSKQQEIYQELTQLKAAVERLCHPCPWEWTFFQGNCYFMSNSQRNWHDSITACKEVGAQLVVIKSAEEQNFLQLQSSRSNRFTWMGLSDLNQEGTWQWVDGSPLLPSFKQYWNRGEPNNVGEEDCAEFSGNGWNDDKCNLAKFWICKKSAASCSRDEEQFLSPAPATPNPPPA
Procedure: (§1) The affinity of the clusters for the extracellular domain (ECD) of the DC-SIGN receptor (DC-SIGN ECD) was estimated via surface plasmon resonance (SPR) assays (Tabarani et al., [2009]). The apparent Kd was calculated in direct interaction mode using a surface functionalized in an oriented manner with DC-SIGN ECD. In this assay, tetrameric DC-SIGN ECD is attached to the surface of the sensor chip via the N-terminus of its neck oligomerization domain, thus presenting its four carbohydrate recognition domains toward the solvent, realistically mimicking the presentation of the receptor on cell surface (Porkolab et al., [2019]). For some of the low affinity ligands, in the mM range, it was not possible to determine their affinity with this assay, and therefore a competition experiment was performed providing IC50 values (Timpano et al., [2008]) (Figure 3A). […] When comparing equivalent clusters, the α1,2-di-mannoside (B series) bound with the highest affinity (Figure 3A). […] A potential explanation for this effect could be that the spacing of clusters is more important for the larger tri-mannosides.
The direct interaction experiments were executed on a T200 Biacore with a CM3 series S sensor chip. Contrary to the competition assay described above, in this test, DC-SIGN ECD used harbors a StreptagII in its N-terminus (DC-SIGN S-ECD) to allow its capture and functionalization onto the surface in an oriented manner. Flow cells were functionalized as previously described (Porkolab et al., [2019]). Briefly, after EDC/NHS activation, flow cells were functionalized with streptactin protein in a first step. Flow cell 1 was used as control, while other flow cells were, in a second round of activation, functionalized with 100 μg/mL of a DC-SIGN S-ECD up to a final density ranging between 2,500 and 3,000 RU, via tag specific capture and linkage by amine coupling chemistry simultaneously. The compounds were injected in running buffer of 25 mM Tris pH 8, 150 mM NaCl, 4 mM CaCl2, 0.05% Tween 20 onto the surface at increasing concentrations with a flow rate of 30 μL/min. The ligand titration led to the determination of an apparent Kd value. The data was analyzed in BIAcore BIAevaluation software for direct interaction 1:1 calculation assuming that the Kd will reflect the affinity of the ligands (glycoclusters) for the DC-SIGN oriented surface used as a whole.

[2] = test system: DC-SIGN on moDC; test: Binding of biotinylated mannoside library to moDCs by flow cytometry; assay type: cell-based, human; conditions: 10 μM biotinylated cluster, 30 min at 4°C, streptavidin staining
Procedure: Next, we assessed the binding of our clusters to cellular DC-SIGN using moDCs (Figure 3B, Supplementary Figure 1B). To this end, binding of the clusters a1–a6, b1–b6, c1–c6, d1–d6, and e1–e6, decorated with a biotin handle, was determined by flow cytometry. Clusters were bound to moDCs for 30 min at 4°C. By staining using fluorophore-conjugated streptavidin and washing at 4°C, the bound clusters could be quantified by flow cytometry. […] In control experiments ligand binding to DC-SIGN was inhibited using a blocking anti-DC-SIGN antibody (Supplementary Figure 1C).
Approximately 10^5 day 5 moDCs were washed and resuspended in 100 μL culture medium (pre-cooled to 4°C). 20 μg/mL AZN-D1 (anti-DC-SIGN, in house Geijtenbeek et al., [2002]) or purified mouse anti-human CD206 antibody (Clone 19.2, BD Bioscience) was added to the moDCs and pre-incubated for 45 min on ice. Subsequently, 10 μM of the biotinylated mannoside clusters or 1 μg/mL of Lewis^Y-conjugated polyacrylamide (positive control) was added, and incubated for 30 min at 4°C. Cells were then washed with pre-cooled PBS (4°C), and stained with Alexa647-labeled streptavidin (Invitrogen^TM) in PBS supplemented with 0.5% BSA and 0.02% NaN3 (PBA) for 30 min at 4°C. Upon washing in ice-cold PBA and fixation in PBS with 0.5% PFA, the fluorescence was measured by flow cytometry (CyAn™ ADP with Summit™ Software), and further analyzed using FlowJo v10.

[3] = test system: moDCs; test: Internalization of biotinylated hexavalent clusters by moDCs (flow cytometry); assay type: cell-based, human
Procedure: For the internalization, the moDCs were incubated with clusters b6, c6, d6, and e6 for 1 h at 4°C, where after unbound ligands were washed away with ice-cold medium. Warm medium was added to the moDCs, and samples were taken at the indicated time points and put on ice. Upon staining the moDCs with fluorophore-conjugated streptavidin, we could measure the signal loss of the membrane via flow cytometry. To exclude ligand-receptor dissociation before internalization, the moDCs were fixed under gentle conditions, hereby inhibiting receptor-mediated endocytosis. On fixed moDCs the clusters remained at the surface, as no signal loss could be detected (Supplementary Figure 1D). […] The di-mannoside clusters (b6, c6, and d6) were internalized relatively fast, with a 50% uptake within 5 min (Figure 5B). The tri-mannoside cluster e6 however remained longer at the membrane surface and only a 25% uptake was seen after 30 min. Similar results were seen using a pH-sensitive fluorophore. In acidic environments, such as the endosomes and lysosomes, the fluorescence of this dye increases. Pre-complexed clusters mirrored the accelerated uptake of the di-mannoside clusters over the e6 cluster (Supplementary Figure 1E). Although the DC-SIGN mediated uptake mechanism is known (Cambi et al., [2009]), the initiation trigger for endocytosis upon DC-SIGN-ligand binding remains unclear. Recognition of the di-mannoside clusters could induce signaling leading to accelerated uptake, whereas the tri-mannoside cluster could trigger a different signaling pathway. Nonetheless, the clusters harboring the smaller mannosides are preferred. Although the binding affinity of the clusters ranged from 0.9 to 6.6 μM, the di-mannosides induce more rapid DC-SIGN internalization over the tri-mannosides, and can thus increase intracellular peptide concentrations more efficiently for further antigen processing and presentation.
Immature day 5 moDCs were harvested and washed with cold HBSS (Thermo Fischer), after which half of the moDCs were gently fixed for 20 min at RT with 1% PFA in PBS. Afterwards, 20 μM of the different biotinylated mannose-clusters in cold HBSS were added. The moDCs were incubated for 1 h on ice, and washed in cold HBSS. Subsequently, warm HBSS was added to the cells, and cells were incubated at 37°C in a shaking heating block. At the indicated time points, a sample of the cells was taken and put on ice. After the last time point, the cells were stained with Streptavidin-Alexa647 (Thermo Fisher), measured using flow cytometry (CyAn™ ADP with Summit™ Software), and further analyzed using FlowJo v10. The same procedure was used for internalization with pHrodo^TM Red Avidin (Thermo Fischer). The different biotinylated mannose-clusters were however incubated with pHrodo-Avidin (ratio 2:1) for 15 min at 37°C, prior to moDC exposure. The fluorescence upon internalization was measured using flow cytometry (BD LSRFortessa™ X-20 with FACSDiva Software), and further analyzed using FlowJo v10.

[4] = biological target: T2, DC-SIGN ECD (Homo sapiens, UniProt Q9NNX6); test: SPR competition (inhibition) assay, DC-SIGN ECD on BSA-mannotriose surface; assay type: binding; conditions: DC-SIGN ECD 20 μM
T2 construct: The ECD of DC-SIGN (residues 66–404) was overexpressed and purified as previously described; made in house
T2 sequence (Q9NNX6 66-404): T1 sequence (Q9NNX6 66-404)
Procedure: as §1
The ECD of DC-SIGN (residues 66–404) was overexpressed and purified as previously described (Tabarani et al., [2009]). The DC-SIGN S-ECD construct used for direct interaction experiment (see below) has been overexpressed and purified as described elsewhere (Porkolab et al., [2019]). The SPR competition experiments were performed on a BIAcore T200 using a CM3 series S sensor chip. Flow cells were activated as previously described (Halary et al., [2002]). Flow cell 1 was functionalized with BSA, blocked with ethanolamine and subsequently used as a control surface. Flow cells 2 and 3 were treated with BSA-Man α1-3[Manα1-6]Man (Dextra) (60 μg/mL) in 10 mM NaOAc pH 4 and blocked with ethanolamine. The final densities on flow cells 2 and 3 were about 2,100 RU. The affinities of the various compounds for DC-SIGN ECD were evaluated via an established inhibition assay (Andreini et al., [2011]) in which DCSIGN ECD was injected at 20 μM alone or in the presence of increasing concentration of inhibitors. Injections were performed at 5 μL/min using 25 mM Tris-HCl pH 8, 150 mM NaCl, 4 mM CaCl2, 0.05% P20 surfactant as running buffer. The surface was regenerated by the injection of 50 mM EDTA. The data was analyzed in BIAcore BIAevaluation software using four parameter equation.

| Structure (SMILES) | Kd [1] [µM] | binding to DC-SIGN on moDC [2] | internalization by moDCs (loss of surface streptavidin signal) ([3]; 20 μM cluster, live moDCs) | internalization by moDCs (pHrodo-avidin fluorescence increase) ([3]; clusters pre-complexed with pH-sensitive dye) | uptake by immature moDCs ([3]; within 5 min at 37°C, 20 μM cluster) [%] | IC50 [4] [µM] |
| --- | --- | --- | --- | --- | --- | --- |
| CC(=O)N[C@@H](CCCCn1cc(CO[C@H]2O[C@H](CO)[C@@H](O)[C@H](O)[C@@H]2O)nn1)C(=O)N[C@@H](CCCCn1cc(CO[C@H]2O[C@H](CO)[C@@H](O)[C@H](O)[C@@H]2O)nn1)C(=O)N[C@@H](CCCCn1cc(CO[C@H]2O[C@H](CO)[C@@H](O)[C@H](O)[C@@H]2O)nn1)C(=O)N[C@@H](CCCCn1cc(CO[C@H]2O[C@H](CO)[C@@H](O)[C@H](O)[C@@H]2O)nn1)C(=O)N[C@@H](CCCCn1cc(CO[C@H]2O[C@H](CO)[C@@H](O)[C@H](O)[C@@H]2O)nn1)C(=O)N[C@@H](CCCCn1cc(CO[C@H]2O[C@H](CO)[C@@H](O)[C@H](O)[C@@H]2O)nn1)C(=O)NCC(=O)N[C@@H](CCCCN)C(N)=O [A6] | 7.82 ± 0.44 | significantly higher binding | – | – | – | – |
| CC(=O)N[C@@H](CCCCn1cc(CO[C@H]2O[C@H](CO[C@H]3O[C@H](CO)[C@@H](O)[C@H](O)[C@@H]3O)[C@@H](O)[C@H](O)[C@@H]2O)nn1)C(=O)N[C@@H](CCCCn1cc(CO[C@H]2O[C@H](CO[C@H]3O[C@H](CO)[C@@H](O)[C@H](O)[C@@H]3O)[C@@H](O)[C@H](O)[C@@H]2O)nn1)C(=O)N[C@@H](CCCCn1cc(CO[C@H]2O[C@H](CO[C@H]3O[C@H](CO)[C@@H](O)[C@H](O)[C@@H]3O)[C@@H](O)[C@H](O)[C@@H]2O)nn1)C(=O)N[C@@H](CCCCn1cc(CO[C@H]2O[C@H](CO[C@H]3O[C@H](CO)[C@@H](O)[C@H](O)[C@@H]3O)[C@@H](O)[C@H](O)[C@@H]2O)nn1)C(=O)N[C@@H](CCCCn1cc(CO[C@H]2O[C@H](CO[C@H]3O[C@H](CO)[C@@H](O)[C@H](O)[C@@H]3O)[C@@H](O)[C@H](O)[C@@H]2O)nn1)C(=O)N[C@@H](CCCCn1cc(CO[C@H]2O[C@H](CO[C@H]3O[C@H](CO)[C@@H](O)[C@H](O)[C@@H]3O)[C@@H](O)[C@H](O)[C@@H]2O)nn1)C(=O)NCC(=O)N[C@@H](CCCCN)C(N)=O [D6] | 6.56 ± 1.2 | no increase in binding | rapidly internalized | internalized rapidly | 50 | – |
| CC(=O)N[C@@H](CCCCn1cc(CO[C@H]2O[C@H](CO[C@H]3O[C@H](CO)[C@@H](O)[C@H](O)[C@@H]3O)[C@@H](O)[C@H](O[C@H]3O[C@H](CO)[C@@H](O)[C@H](O)[C@@H]3O)[C@@H]2O)nn1)C(=O)NCC(=O)N[C@@H](CCCCn1cc(CO[C@H]2O[C@H](CO[C@H]3O[C@H](CO)[C@@H](O)[C@H](O)[C@@H]3O)[C@@H](O)[C@H](O[C@H]3O[C@H](CO)[C@@H](O)[C@H](O)[C@@H]3O)[C@@H]2O)nn1)C(=O)NCC(=O)N[C@@H](CCCCN)C(N)=O [E2] | – | – | – | – | – | 306 ± 4.75 |
